In paper PMC9044951, “Bioinformatic Mining and Structure-Activity Profiling of Baeyer-Villiger Monooxygenases from Mycobacterium tuberculosis” (mSphere, 2022):

Tests used:
EthA (Rv3854c) = EthA (Rv3854c) (Mycobacterium tuberculosis, UniProt P9WNF9); type: biochemical
Rv0892 = Rv0892 (Mycobacterium tuberculosis, UniProt P9WNG1)
Rv0565c = Rv0565c (Mycobacterium tuberculosis, UniProt O53762)
CCCC(=O)CC(=O)OCC = assay: purified protein; conditions: pH 7.5; 25.0 °C
CCCCCCC(C)=O = assay: purified protein; conditions: pH 7.5; 25.0 °C

Chain of Rv0892 (P9WNG1 whole entry, looked up): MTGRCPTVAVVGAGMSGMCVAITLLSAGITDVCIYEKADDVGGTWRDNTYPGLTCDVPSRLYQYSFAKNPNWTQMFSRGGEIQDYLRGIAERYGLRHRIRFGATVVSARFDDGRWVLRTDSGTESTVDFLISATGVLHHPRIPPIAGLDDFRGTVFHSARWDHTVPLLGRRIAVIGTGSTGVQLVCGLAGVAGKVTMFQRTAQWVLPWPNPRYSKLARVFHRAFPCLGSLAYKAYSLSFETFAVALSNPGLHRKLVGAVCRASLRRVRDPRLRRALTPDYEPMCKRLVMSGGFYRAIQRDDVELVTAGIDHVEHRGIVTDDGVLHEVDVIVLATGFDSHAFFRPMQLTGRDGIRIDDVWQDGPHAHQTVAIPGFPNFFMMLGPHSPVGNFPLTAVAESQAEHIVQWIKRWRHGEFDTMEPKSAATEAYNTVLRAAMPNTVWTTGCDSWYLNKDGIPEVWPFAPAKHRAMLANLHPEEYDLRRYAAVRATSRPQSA
Chain of Rv0565c (O53762 entry or part of it): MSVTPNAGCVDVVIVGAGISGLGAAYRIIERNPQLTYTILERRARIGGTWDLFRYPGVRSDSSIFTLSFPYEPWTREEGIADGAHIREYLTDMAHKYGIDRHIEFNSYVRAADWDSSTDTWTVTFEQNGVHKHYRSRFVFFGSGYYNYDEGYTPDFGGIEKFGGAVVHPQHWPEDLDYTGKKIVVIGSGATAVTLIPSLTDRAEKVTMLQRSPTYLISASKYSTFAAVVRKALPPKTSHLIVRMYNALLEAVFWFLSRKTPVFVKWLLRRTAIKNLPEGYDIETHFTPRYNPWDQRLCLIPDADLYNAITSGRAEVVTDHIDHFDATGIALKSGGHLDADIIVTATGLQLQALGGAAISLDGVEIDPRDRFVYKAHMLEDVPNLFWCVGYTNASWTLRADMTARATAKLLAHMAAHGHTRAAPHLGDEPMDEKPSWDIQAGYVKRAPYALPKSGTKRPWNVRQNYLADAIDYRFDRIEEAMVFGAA
Chain of EthA (Rv3854c) (P9WNF9 whole entry, looked up): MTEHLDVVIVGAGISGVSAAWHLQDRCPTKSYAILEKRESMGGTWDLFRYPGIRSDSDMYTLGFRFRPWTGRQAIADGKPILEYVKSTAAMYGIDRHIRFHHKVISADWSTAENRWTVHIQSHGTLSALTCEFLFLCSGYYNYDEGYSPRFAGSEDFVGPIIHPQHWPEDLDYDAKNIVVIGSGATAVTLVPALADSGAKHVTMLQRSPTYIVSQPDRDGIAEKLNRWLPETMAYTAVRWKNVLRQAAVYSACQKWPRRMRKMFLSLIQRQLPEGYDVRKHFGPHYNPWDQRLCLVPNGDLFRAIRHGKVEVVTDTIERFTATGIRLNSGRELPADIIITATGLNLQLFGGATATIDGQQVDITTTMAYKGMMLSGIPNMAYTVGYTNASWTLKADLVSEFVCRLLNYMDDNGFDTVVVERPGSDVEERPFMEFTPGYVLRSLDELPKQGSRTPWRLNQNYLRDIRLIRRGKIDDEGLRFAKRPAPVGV

Molecule	activity (EthA (Rv3854c))	specific activity (Rv0892)	activity (Rv0565c)	Km (CCCC(=O)CC(=O)OCC)	Km (CCCCCCC(C)=O)
CCCCCCC(C)=O [2-octanone]	Rv0565c and EthA are efficient in oxidizing 2-octanone	Rv0892 exhibits markedly low catalytic rates on the tested substrates	Rv0565c and EthA are efficient in oxidizing 2-octanone	–	–
CCCC(=O)CC(=O)OCC [ethyl 3-oxohexanoate]	with 2-oct and Et3-ox being the most effective substrates	Rv0892 exhibits markedly low catalytic rates on the tested substrates	with 2-oct and Et3-ox being the most effective substrates	–	–
MymA (Rv3083), MymAcoli (Mycobacterium tuberculosis H37Rv)	–	–	–	0.24 ± 0.04 mM	0.4 ± 0.1 mM
